Legend:
Format in all cases: cell-based, human
TNFα = test: Relative TNFα mRNA expression in IL-1β-stimulated MKN-45 cells (real-time PCR); details: IL-1β-stimulated DMSO-treated cells = 100%, ACTB reference
Protocol: (§1) RNA was extracted from the cells used in Example 2 according to the manufacturer's protocol for ABI Prism 6100 Nucleic Acid PrepStation (a nucleic acid isolation system, product of Applied Biosystems). More specifically, after removal of the culture supernatant and washing with 1 mL of PBS, 250 μL of Nucleic Acid Purification Lysis Solution (Part No. 4305895, Applied Biosystems) was added, and then agitated using a shaker for 2 to 3 minutes. The Lysis Solution containing the cell lysate was collected, and the total amount was transferred to the wells of RNA Purification Tray (Part No. 4305673, Applied Biosystems), which had been pre-wet with 40 μL of Nucleic Acid Purification Wash Solution I (Part No. 4305891, Applied Biosystems) beforehand. Aspiration (20% pressure) was performed for 2 minutes to adsorb the sample onto the RNA Purification Tray, followed by sequentially adding and aspirating (20% pressure, 2 min.) 500 μL of Wash Solution I, Nucleic Acid Purification (Part No. 4305891, Applied Biosystems), 400 μL of Wash Solution II, Nucleic Acid Purification (Part No. 4305890, product of Applied Biosystems), 400 μL of the Wash Solution II, and 300 μL of the Wash Solution II in that order. Aspiration (90% pressure) was performed for 5 minutes to remove the water content from the RNA Purification Trays. After addition of 150 μL of Elution Solution, Nucleic Acid Purification (Part No. 4305893, product of Applied Biosystems), aspiration (20% pressure) was performed for 2 minutes, while collecting the outflow. This was used as collected RNA solution.
(§2) Absorbance of the collected RNA solution at 260 nm was measured using a microplate spectrophotometer (“SpectraMax Plus”, product of Molecular Devices) with an analysis software (“SOFTmaxPRO ver.3.1.2”, product of Molecular Devices), and the RNA concentration was determined from the absorbance. Likewise, absorbance at 280 nm was measured and the purity of the RNA was determined using the analysis software.
(§3) cDNA was synthesized according to the manufacturer's protocol for TaqMan® Reverse Transcription Reagents (Part No. N808-0234, product of Applied Biosystems). More specifically, about 0.5 μg of RNA, 2.5 μL of 10×RT buffer, 5.5 μL of MgCl2 solution, 5 μL of dNTP mixture, 1.25 μL of random hexamer (primers), 0.5 μL of RNase inhibitor, and 0.63 μL of MultiScribe Reverse Transcriptase (product of Applied Biosystems) were added to each collected RNA sample in a tube, and DEPC-treated water was added to make a total volume of 25 μL and stirred. A reaction consisting of 25° C. for 10 minutes, 48° C. for 30 minutes, and 95° C. for 5 minutes was performed using a PCR thermal cycler (“TaKaRa PCR Thermal Cycler Dice”, product of Takara Bio Inc.) to prepare a cDNA solution.
(§4) PCR was performed according to the manufacturer's protocol for TaqMan® Gene Expression Assays (product of Applied Biosystems). More specifically, 5 μL of TaqMan® Fast Universal PCR Master Mix (product of Applied Biosystems), 0.5 μL of TaqMan® Gene Expression Assays for the target gene (gene-specific probe and primer sets, product of Applied Biosystems), and 4.5 μL of the above-obtained cDNA solution were added to each sample and stirred. A PCR reaction consisting of heating at 95° C. for 20 seconds, followed by 40 cycles consisting of heating at 95° C. for 3 seconds and annealing and extension at 60° C. for 30 seconds was performed using a real-time PCR device (“Applied Biosystems 7500 Real-Time PCR System”) with SDS v1.4 Software (product of Applied Biosystems). Threshold cycle (Ct) values were calculated using the software.
(§5) The Assay IDs of the TaqMan® Gene Expression Assays for the target genes used are as follows:
(§6) The expression level of each gene was determined according to the following formula using the level of ACTB as a reference standard.
(§7) (Relative mRNA expression level)=2̂−{(Ct value of the target gene)−(Ct value of ACTB)} […]

NF-κB = test: NF-kappaB reporter assay (pNF-kappaB-SEAP) in IL-1β-stimulated MKN-45 cells; details: IL-1β 2 ng/mL for 6 hours, DMSO (0.05%) control = 1.00, triplicate
Protocol: pNF-kappaB-SEAP was obtained from Clonetech Laboratories Inc.
Cryopreserved MKN-45 cells (product of JCRB (Japanese Collection of Research Bioresources)) were thawed and cultured in a standard medium in an incubator (37° C., 5% CO2). Every three to five days, the cells were recovered by treatment with Trypsin-EDTA, then adequately diluted and subcultured. MKN-45 cells subcultured two or more times with a survival rate of 95% or more were used in each experiment.
The subcultured MKN-45 cells were harvested using Trypsin-EDTA solution, and the number of viable cells was counted. The cells were suspended in a standard medium to yield a 1.5×10^5 cells/mL suspension. A 24-well plate was seeded with 500 μL/well of the cell suspension, and the cells were cultured in an incubator (37° C., 5% CO2).
The day after seeding, transfection was performed according to the following protocol.
(4.1) Preparation of Plasmid Solution 4 μL of 0.1 μg/μL pNFkappaB-SEAP was placed into each well and diluted with 50 μL of OPTI-MEM I (product of Invitrogen Japan K.K.) by mixing by inversion.
1 μL of Lipofectamine 2000 reagent (product of Invitrogen) was placed into each well and diluted with 50 μL of OPTI-MEM I (product of Life Technologies Inc.) by mixing by inversion. The mixture was allowed to stand at room temperature for 5 to 10 minutes to prepare a Lipofectamine dilution.
The plasmid solution and the Lipofectamine dilution were mixed by inversion and allowed to stand at room temperature for 20 to 30 minutes to prepare a transfection mixture.
The culture medium was removed from the 24-well plate by suction. While care was taken not to dry the subcultured MKN-45 cells, the inner surface of the wells was washed with 1 mL/well of PBS. After the medium was replaced with 500 μL/well of OPTI-MEM I (product of Life Technologies Inc.), 100 μL/well of the transfection mixture was added, and the cells were cultured in a incubator (37° C., 5% CO2). After about 5 hours of incubation, the medium was replaced with a standard medium, and the cells were further cultured in a CO2 incubator (37° C., 5% CO2) until the following day.
On the following morning, the culture medium supernatant was removed by suction and replaced with 1 mL/well of the test compound solution or control solution diluted with a standard medium. The cells were cultured in a CO2 incubator (37° C., 5% CO2) for 1 hour. Each experiment was performed in triplicate.
200 ng/mL IL-1β was added in an amount of 10 μL/well (final concentration: 2 ng/mL), and the cells were cultured in a CO2 incubator (37° C., 5% CO2) for 6 hours.
A reporter assay was performed using Reporter Assay Kit-SEAP (product of Toyobo Co.) according to the manufacturer's protocol.
More specifically, 500 μL of the culture broth was transferred into a tube and centrifuged at 15,000 rpm for 5 minutes at 4° C. The supernatant was transferred into a 96-well white plate. The positive control included in the Reporter Assay Kit-SEAP, and a standard medium as a blank control were each added in an amount of 20 μL/well to the 96-well white plate. Further, an inhibitor for inhibiting the AP activity of the MKN-45 cells was added in an amount of 20 μL/well. After sealing the plate, the contents were mixed well. The plate was placed into a CO2 incubator (37° C., 5% CO2) and allowed to stand for 30 minutes. Subsequently, the plate was allowed to stand on ice for 1 minute, followed by addition of 160 μL/well of Lumi-Phos Plus (a chemiluminescent substrate, product of Lumigen Inc.). The plate was sealed again and placed in a light-shielded state into a CO2 incubator (37° C., 5% CO2). After the plate was allowed to stand for 15 to 30 minutes, luminescence was measured for about 5 to about 10 seconds using a luminometer.
The results of the reporter assay were expressed as Percent Control (or Inhibition), calculated according to the following formulae. The luminescence of each sample was calculated by subtracting the average of blank samples.

COX2 = test: Relative COX2 mRNA expression in IL-1β-stimulated MKN-45 cells (real-time PCR); details: IL-1β-stimulated DMSO-treated cells = 100%, ACTB reference
Protocol: as §1, §2, §3, §4, §5, §6, §7

IL-8 = test: Relative IL-8 mRNA expression in IL-1β-stimulated MKN-45 cells (real-time PCR); details: IL-1β-stimulated DMSO-treated cells = 100%, ACTB reference
Protocol: as §1, §2, §3, §4, §5, §6, §7

Row | Compound | TNFa relative mRNA expression level, Mean (TNFα) [%] | NF-kappaB reporter (SEAP luminescence) IL-1b(+) mean, relative to control (NF-κB) | COX2 relative mRNA expression level, Mean (COX2) [%] | IL-8 relative mRNA expression level, Mean (IL-8) [%]
1 | COC(=O)c1ccc(CN2C(=O)CCc3c(CC4SC(=O)NC4=O)ccc(OC)c32)cc1 (stereo not drawn) [Test Compound 025] | 53.0 | 0.58 | 38.3 | 59.9
2 | COc1ccc(CC2SC(=O)NC2=O)c2c1N(Cc1ccc(Br)cc1)C(=O)CC2 (stereo not drawn) [Test Compound 123] | 28.5 | 0.46 | 28.6 | 48.3
3 | COc1ccc(CC2SC(=O)NC2=O)c2c1N(Cc1ccc(C#N)cc1)C(=O)CC2 (stereo not drawn) [Test Compound 125] | 52.5 | 0.55 | 29.2 | 45.4
4 | COc1ccc(CC2SC(=O)NC2=O)c2c1N(Cc1ccc(OCc3ccccc3)cc1)C(=O)CC2 (stereo not drawn) [Test Compound 127] | 49.8 | 0.60 | 31.0 | 44.8
5 | COc1ccc(CC2SC(=O)NC2=O)c2c1N(Cc1ccc(NS(C)(=O)=O)cc1)C(=O)CC2 (stereo not drawn) [Test Compound 131] | 71.3 | 0.49 | 80.9 | 77.9
6 | O=C1NC(=O)C(Cc2cccc3c2CCC(=O)N3Cc2ccc(Br)cc2)S1 (stereo not drawn) [Test Compound 134] | 36.6 | 0.46 | 33.1 | 55.4
7 | O=C1NC(=O)C(Cc2cccc3c2CCC(=O)N3c2ccccc2)S1 (stereo not drawn) [Test Compound 150] | 53.9 | 0.71 | 53.7 | 52.0
8 | CC(C)(C)OC(=O)N1CCC(CCN2C(=O)CCc3c(CC4SC(=O)NC4=O)cccc32)CC1 (stereo not drawn) [Test Compound 159] | 33.5 | 0.64 | 27.7 | 34.0
9 | COc1ccc(CC2SC(=O)NC2=O)c2c1N(CC1CCN(c3ccc(C)cc3)CC1)C(=O)CC2 (stereo not drawn) [Test Compound 164] | 30.0 | 0.78 | 21.7 | 24.8
10 | O=C1NC(=O)C(Cc2ccc3c(c2)CCC(=O)N3Cc2ccc(-c3ccccc3)cc2)S1 (stereo not drawn) [Test Compound 186] | 70.8 | 0.67 | 29.7 | 67.7
11 | COc1ccc(CC2SC(=O)NC2=O)c2c1N(Cc1ccc(NC(=O)C3CCCCC3)cc1)C(=O)CC2 (stereo not drawn) [Test Compound 225] | 44.6 | 0.49 | 32.9 | 50.0
12 | CCCCCOC(=O)Nc1ccc(CN2C(=O)CCc3c(CC4SC(=O)NC4=O)ccc(OC)c32)cc1 (stereo not drawn) [Test Compound 232] | 28.9 | 0.71 | 29.9 | 33.8
13 | COc1ccc(CC2SC(=O)NC2=O)c2c1N(Cc1ccc(NC(=O)Oc3ccc(C)cc3)cc1)C(=O)CC2 (stereo not drawn) [Test Compound 233] | 28.9 | 0.85 | 24.9 | 30.4
14 | COc1ccc(CC2SC(=O)NC2=O)c2c1N(Cc1ccc(NC(=O)OCc3ccccc3)cc1)C(=O)CC2 (stereo not drawn) [Test Compound 234] | 32.4 | 0.67 | 24.0 | 28.3
15 | COc1ccc(OC(=O)Nc2ccc(CN3C(=O)CCc4c(CC5SC(=O)NC5=O)ccc(OC)c43)cc2)cc1 (stereo not drawn) [Test Compound 237] | 26.2 | 0.57 | 25.9 | 25.9

Reference: US20090326008A1, “NF-kappa B Inhibitor” (priority 2006, published 2009)
